Values quoted from earlier work, collected in patent US12453729B2, “Pharmaceutical formulations” (AstraZeneca AB, priority 2020, dated 2025).

Assays:
ERα receptor [1] = molecular target: T1, ERα receptor (Homo sapiens, UniProt P03372); settings: patient samples; 500 mg monthly dose
T1 sequence (P03372 1-595): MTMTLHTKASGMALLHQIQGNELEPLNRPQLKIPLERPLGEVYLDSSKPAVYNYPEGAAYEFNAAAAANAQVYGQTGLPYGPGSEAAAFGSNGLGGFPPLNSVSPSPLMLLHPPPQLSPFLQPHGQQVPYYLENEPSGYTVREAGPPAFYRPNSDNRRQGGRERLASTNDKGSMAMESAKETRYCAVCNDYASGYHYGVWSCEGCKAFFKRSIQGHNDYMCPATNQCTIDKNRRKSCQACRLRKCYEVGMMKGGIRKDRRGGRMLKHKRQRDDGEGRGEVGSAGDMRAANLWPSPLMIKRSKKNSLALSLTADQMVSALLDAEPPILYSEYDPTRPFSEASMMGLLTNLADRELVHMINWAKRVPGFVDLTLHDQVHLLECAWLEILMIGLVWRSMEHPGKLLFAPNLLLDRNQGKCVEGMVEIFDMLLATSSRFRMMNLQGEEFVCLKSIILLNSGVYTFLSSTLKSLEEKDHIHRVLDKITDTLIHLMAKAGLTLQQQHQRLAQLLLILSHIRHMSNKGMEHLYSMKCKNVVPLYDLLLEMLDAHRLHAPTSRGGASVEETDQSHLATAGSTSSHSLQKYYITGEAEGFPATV

ERα receptor [2] = molecular target: T1, ERα receptor; settings: in vitro breast cancer cell line experiments

C[C@]12CC[C@@H]3c4ccc(O)cc4C[C@@H](CCCCCCCCC[S+]([O-])CCCC(F)(F)C(F)(F)F)[C@H]3[C@@H]1CC[C@@H]2O (some centres unmarked) [Fulvestrant]
turnover of the receptor (ERα receptor [1]): less than 50%
down-regulation of the receptor (ERα receptor [2]): complete down-regulation
